Laboratory results published in article PMC12865225 (Clinical and Translational Science, 2026).

Tests used:
MRP3 = system: T1, MRP3; assay: Efflux transport assay in MRP3 HEK293 membrane vesicles; type: biochemical, human; details: 5 and 50 µM, 10 min
T1 construct: expressed in transfected cells; host or cells: HEK293 cells

BCRP = biological target: T2, BCRP (Homo sapiens, UniProt Q9UNQ0); assay: Efflux transport assay in BCRP HEK293 membrane vesicles; type: biochemical; details: 5 and 50 µM
T2 construct: made in house; host or cells: membrane vesicles from HEK293 cells expressing the transporter
T2 sequence (Q9UNQ0 1-655): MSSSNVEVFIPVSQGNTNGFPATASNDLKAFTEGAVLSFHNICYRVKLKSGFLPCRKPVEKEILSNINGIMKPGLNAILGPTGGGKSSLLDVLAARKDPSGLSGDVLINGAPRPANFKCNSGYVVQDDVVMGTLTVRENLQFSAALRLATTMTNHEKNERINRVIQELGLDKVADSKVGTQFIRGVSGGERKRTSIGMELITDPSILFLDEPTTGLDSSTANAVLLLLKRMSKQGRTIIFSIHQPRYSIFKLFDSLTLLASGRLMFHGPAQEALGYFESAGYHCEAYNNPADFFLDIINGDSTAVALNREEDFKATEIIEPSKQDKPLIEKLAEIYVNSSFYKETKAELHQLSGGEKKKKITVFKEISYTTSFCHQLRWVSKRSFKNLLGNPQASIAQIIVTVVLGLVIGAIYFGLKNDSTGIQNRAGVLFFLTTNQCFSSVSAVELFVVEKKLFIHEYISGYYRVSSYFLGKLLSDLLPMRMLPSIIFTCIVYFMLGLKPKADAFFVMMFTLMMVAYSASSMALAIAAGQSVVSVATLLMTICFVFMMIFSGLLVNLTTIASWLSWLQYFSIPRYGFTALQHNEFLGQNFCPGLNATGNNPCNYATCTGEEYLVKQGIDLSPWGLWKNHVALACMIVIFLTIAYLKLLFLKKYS
Description: Membrane vesicles, 5 μL (7.5 μg of total protein), prepared as previously reported, were aliquoted to wells of a conical‐shaped 96‐well plate. The plate was incubated for 10 min at +37°C before the initiation of transport by adding 25 μL of TS‐buffer (10 mM Tris, 250 mM sucrose, pH adjusted to 7.4 with HEPES) containing magnesium chloride (10 mM final in the reaction), adenosine triphosphate (ATP) or adenosine monophosphate (AMP), 4 mM final in the reaction, and the transporter substrate and inhibitor. Each experiment included triplicate samples for both ATP and AMP samples. The concentrations of rosuvastatin and N‐methyl‐quinidine were 1 μM in the BCRP and P‐gp vesicle inhibition assays, respectively. […] The transport reactions were quenched by adding 200 μL of cold TS‐buffer to each well and transferring the samples to a 96‐multiwell 1.0 μm glass fiber filter plate (Merck Millipore, Darmstadt, Germany) kept under vacuum. Wells were further washed four times with cold TS‐buffer, after which the plate was dried under vacuum. The compounds were eluted from the plate by applying 100 μL of 75% methanol containing 0.1% formic acid to each well and incubating at 250 RPM for 30 min before centrifuging the samples to an analysis plate at 2800 g for 2 min. For the rosuvastatin samples, the elution solvent contained rosuvastin‐d6 as the internal standard. […]

transport by MRP3 (MRP3) | transport by BCRP (BCRP) | SMILES
did not transport | did not transport | Cc1onc(-c2c(Cl)cccc2Cl)c1C(=O)N[C@@H]1C(=O)N2[C@@H]1SC(C)(C)[C@@H]2C(=O)O [Dicloxacillin]
did not transport | did not transport | Cc1onc(-c2c(F)cccc2Cl)c1C(=O)N[C@@H]1C(=O)N2[C@@H]1SC(C)(C)[C@@H]2C(=O)O [Flucloxacillin]
